Usually EC50 stands for the concentration at which the effect is half-maximal. Low readings indicate an effect from little substance, high ones a need for much substance.

Results on 23 compounds are retold here after BindingDB's records for doi:10.1021/jm061152t (Abbott Laboratories, 2007).

Where “and” joins values, the source holds several entries; their conditions need not be identical. Equal values may be shown once.

The nature of one assay: The binding affinities (Ki) of compounds were determined using fluorescence polarization assays (FPA) that measure their ability to competitively displace a Bad-derived peptide from Bcl-xL. Compound efficacy (EC50) in a cellular context was evaluated by testing their ability to reverse the protection from cytokine w.
Settings: not given
For orientation: In fluorescence polarisation assays a small probe gives low polarisation when free and higher when bound to something large.
For `CN(C)CC[C@H](CSc1ccccc1)Nc1ccc(S(=O)(=O)NC(=O)c2ccc(N3CCN(Cc4ccccc4N4CCOCC4)CC3)cc2)cc1[N+](=O)[O-]` [N-[(4-{[(2R)-4-(dimethylamino)-1-(phenylsulfanyl)butan-2-yl]amino}-3-nitrobenzene)sulfonyl]-4-(4-{[2-(morpholin-4-yl)phenyl]methyl}piperazin-1-yl)benzamide], the EC50 was 430 nM and 460 nM.

Turning to `CN(C)CC[C@H](CSc1ccccc1)Nc1ccc(S(=O)(=O)NC(=O)c2ccc(N3CCN(Cc4ccccc4C4CCCCC4)CC3)cc2)cc1[N+](=O)[O-]` [4-{4-[(2-cyclohexylphenyl)methyl]piperazin-1-yl}-N-[(4-{[(2R)-4-(dimethylamino)-1-(phenylsulfanyl)butan-2-yl]amino}-3-nitrobenzene)sulfonyl]benzamide], the EC50 was 340 nM and 120 nM.

Take `CN(C)CC[C@H](CSc1ccccc1)Nc1ccc(S(=O)(=O)NC(=O)c2ccc(N3CCN(Cc4ccccc4-c4cccc(Cl)c4)CC3)cc2)cc1[N+](=O)[O-]` [4-(4-{[2-(3-chlorophenyl)phenyl]methyl}piperazin-1-yl)-N-[(4-{[(2R)-4-(dimethylamino)-1-(phenylsulfanyl)butan-2-yl]amino}-3-nitrobenzene)sulfonyl]benzamide]: the EC50 was 180 nM and 33 nM.

As for `CN(C)CC[C@H](CSc1ccccc1)Nc1ccc(S(=O)(=O)NC(=O)c2ccc(N3CCN(Cc4ccccc4-c4cccnc4)CC3)cc2)cc1[N+](=O)[O-]` [N-[(4-{[(2R)-4-(dimethylamino)-1-(phenylsulfanyl)butan-2-yl]amino}-3-nitrobenzene)sulfonyl]-4-(4-{[2-(pyridin-3-yl)phenyl]methyl}piperazin-1-yl)benzamide], the EC50 is 800 nM and 820 nM.

Take `CN(C)CC[C@H](CSc1ccccc1)Nc1ccc(S(=O)(=O)NC(=O)c2ccc(N3CCN(C(=O)Nc4ccccc4)CC3)cc2)cc1[N+](=O)[O-]` [4-(4-{[(4-{[(2R)-4-(dimethylamino)-1-(phenylsulfanyl)butan-2-yl]amino}-3-nitrobenzene)sulfonyl]carbamoyl}phenyl)-N-phenylpiperazine-1-carboxamide]: the EC50 is above 50000 nM.

For the compound `CN(C)CC[C@H](CSc1ccccc1)Nc1ccc(S(=O)(=O)NC(=O)c2ccc(N3CCN(Cc4ccccc4NC4CCCCC4)CC3)cc2)cc1[N+](=O)[O-]` [4-(4-{[2-(cyclohexylamino)phenyl]methyl}piperazin-1-yl)-N-[(4-{[(2R)-4-(dimethylamino)-1-(phenylsulfanyl)butan-2-yl]amino}-3-nitrobenzene)sulfonyl]benzamide], the EC50 is 660 nM and 340 nM.

In the case of `CN(C)CC[C@H](CSc1ccccc1)Nc1ccc(S(=O)(=O)NC(=O)c2ccc(N3CCN(Cc4ccccc4-c4ccc(C(F)(F)F)cc4)CC3)cc2)cc1[N+](=O)[O-]` [N-[(4-{[(2R)-4-(dimethylamino)-1-(phenylsulfanyl)butan-2-yl]amino}-3-nitrobenzene)sulfonyl]-4-[4-({2-[4-(trifluoromethyl)phenyl]phenyl}methyl)piperazin-1-yl]benzamide], the EC50 is 40 nM and 13 nM.

Regarding `COc1ccc(-c2ccccc2CN2CCN(c3ccc(C(=O)NS(=O)(=O)c4ccc(N[C@H](CCN(C)C)CSc5ccccc5)c([N+](=O)[O-])c4)cc3)CC2)cc1` [N-[(4-{[(2R)-4-(dimethylamino)-1-(phenylsulfanyl)butan-2-yl]amino}-3-nitrobenzene)sulfonyl]-4-(4-{[2-(4-methoxyphenyl)phenyl]methyl}piperazin-1-yl)benzamide], the EC50 is 30 nM and 25 nM.

As for `COc1cccc(-c2ccccc2CN2CCN(c3ccc(C(=O)NS(=O)(=O)c4ccc(N[C@H](CCN(C)C)CSc5ccccc5)c([N+](=O)[O-])c4)cc3)CC2)c1` [N-[(4-{[(2R)-4-(dimethylamino)-1-(phenylsulfanyl)butan-2-yl]amino}-3-nitrobenzene)sulfonyl]-4-(4-{[2-(3-methoxyphenyl)phenyl]methyl}piperazin-1-yl)benzamide], the EC50 is 380 nM and 460 nM.

Take `CN(C)CC[C@H](CSc1ccccc1)Nc1ccc(S(=O)(=O)NC(=O)c2ccc(N3CCN(Cc4ccccc4-c4ccc(F)cc4)CC3)cc2)cc1[N+](=O)[O-]` [N-[(4-{[(2R)-4-(dimethylamino)-1-(phenylsulfanyl)butan-2-yl]amino}-3-nitrobenzene)sulfonyl]-4-(4-{[2-(4-fluorophenyl)phenyl]methyl}piperazin-1-yl)benzamide]: the EC50 is 130 nM and 27 nM.

`CC1OC2(CCN(c3ccc(C(=O)NS(=O)(=O)c4ccc(N[C@H](CCN(C)C)CSc5ccccc5)c([N+](=O)[O-])c4)cc3)CC2)N(Cc2ccccc2)C1=O` (stereo partly drawn) [4-{4-benzyl-2-methyl-3-oxo-1-oxa-4,8-diazaspiro[4.5]decan-8-yl}-N-[(4-{[(2R)-4-(dimethylamino)-1-(phenylsulfanyl)butan-2-yl]amino}-3-nitrobenzene)sulfonyl]benzamide] gave an EC50 above 50000 nM.

Turning to `CN(C)CC[C@H](CSc1ccccc1)Nc1ccc(S(=O)(=O)NC(=O)c2ccc(N3CCN(Cc4ccccc4-c4ccccc4)CC3)cc2)cc1[N+](=O)[O-]` [N-[(4-{[(2R)-4-(dimethylamino)-1-(phenylsulfanyl)butan-2-yl]amino}-3-nitrobenzene)sulfonyl]-4-{4-[(2-phenylphenyl)methyl]piperazin-1-yl}benzamide], the EC50 was 18 nM and 16 nM.

In the case of `Cc1ccc(S(=O)(=O)N2CCN(c3ccc(C(=O)NS(=O)(=O)c4ccc(N[C@H](CCN(C)C)CSc5ccccc5)c([N+](=O)[O-])c4)cc3)CC2)cc1` [N-[(4-{[(2R)-4-(dimethylamino)-1-(phenylsulfanyl)butan-2-yl]amino}-3-nitrobenzene)sulfonyl]-4-{4-[(4-methylbenzene)sulfonyl]piperazin-1-yl}benzamide], the EC50 was above 20000 nM.

Regarding `CN(C)CC[C@H](CSc1ccccc1)Nc1ccc(S(=O)(=O)NC(=O)c2ccc(N3CCN(Cc4ccccc4-c4ccccc4Cl)CC3)cc2)cc1[N+](=O)[O-]` [4-(4-{[2-(2-chlorophenyl)phenyl]methyl}piperazin-1-yl)-N-[(4-{[(2R)-4-(dimethylamino)-1-(phenylsulfanyl)butan-2-yl]amino}-3-nitrobenzene)sulfonyl]benzamide], the EC50 is 56 nM and 27 nM.

Turning to `CN(C)CC[C@H](CSc1ccccc1)Nc1ccc(S(=O)(=O)NC(=O)c2ccc(N3CCC(=Cc4cccnc4)CC3)cc2)cc1[N+](=O)[O-]` [N-[(4-{[(2R)-4-(dimethylamino)-1-(phenylsulfanyl)butan-2-yl]amino}-3-nitrobenzene)sulfonyl]-4-[4-(pyridin-3-ylmethylidene)piperidin-1-yl]benzamide], the EC50 was 1900 nM and 5300 nM.

For `Cc1ccccc1CN1CCN(c2ccc(C(=O)NS(=O)(=O)c3ccc(N[C@H](CCN(C)C)CSc4ccccc4)c([N+](=O)[O-])c3)cc2)CC1` [N-[(4-{[(2R)-4-(dimethylamino)-1-(phenylsulfanyl)butan-2-yl]amino}-3-nitrobenzene)sulfonyl]-4-{4-[(2-methylphenyl)methyl]piperazin-1-yl}benzamide], the EC50 is 410 nM and 940 nM.

For the compound `CN(C)CC[C@H](CSc1ccccc1)Nc1ccc(S(=O)(=O)NC(=O)c2ccc(N3CCN(Cc4ccccc4-c4ccc(-c5ccccc5)cc4)CC3)cc2)cc1[N+](=O)[O-]` [N-[(4-{[(2R)-4-(dimethylamino)-1-(phenylsulfanyl)butan-2-yl]amino}-3-nitrobenzene)sulfonyl]-4-(4-{[2-(4-phenylphenyl)phenyl]methyl}piperazin-1-yl)benzamide], the EC50 is 22 nM and 68 nM.

As to `CN(C)CC[C@H](CSc1ccccc1)Nc1ccc(S(=O)(=O)NC(=O)c2ccc(N3CCN(Cc4ccccc4C(F)(F)F)CC3)cc2)cc1[N+](=O)[O-]` [N-[(4-{[(2R)-4-(dimethylamino)-1-(phenylsulfanyl)butan-2-yl]amino}-3-nitrobenzene)sulfonyl]-4-(4-{[2-(trifluoromethyl)phenyl]methyl}piperazin-1-yl)benzamide], the EC50 was 390 nM and 130 nM.

On to `CN(C)CC[C@H](CSc1ccccc1)Nc1ccc(S(=O)(=O)NC(=O)c2ccc(N3CCC(=Cc4ccccc4-c4ccccc4)CC3)cc2)cc1[N+](=O)[O-]` [N-[(4-{[(2R)-4-(dimethylamino)-1-(phenylsulfanyl)butan-2-yl]amino}-3-nitrobenzene)sulfonyl]-4-{4-[(2-phenylphenyl)methylidene]piperidin-1-yl}benzamide], for which the EC50 is 160 nM and 180 nM.

Consider `CN(C)CC[C@H](CSc1ccccc1)Nc1ccc(S(=O)(=O)NC(=O)c2ccc(N3CCC(=Cc4ccc(F)cc4)CC3)cc2)cc1[N+](=O)[O-]` [N-[(4-{[(2R)-4-(dimethylamino)-1-(phenylsulfanyl)butan-2-yl]amino}-3-nitrobenzene)sulfonyl]-4-{4-[(4-fluorophenyl)methylidene]piperidin-1-yl}benzamide], for which it took 600 nM to reach a half-maximal effect (EC50).

For `CN(C)CC[C@H](CSc1ccccc1)Nc1ccc(S(=O)(=O)NC(=O)c2ccc(N3CCN(Cc4ccccc4S(C)(=O)=O)CC3)cc2)cc1[N+](=O)[O-]` [N-[(4-{[(2R)-4-(dimethylamino)-1-(phenylsulfanyl)butan-2-yl]amino}-3-nitrobenzene)sulfonyl]-4-{4-[(2-methanesulfonylphenyl)methyl]piperazin-1-yl}benzamide], the EC50 was 5500 nM and 6800 nM.

On to `CSc1ccccc1CN1CCN(c2ccc(C(=O)NS(=O)(=O)c3ccc(N[C@H](CCN(C)C)CSc4ccccc4)c([N+](=O)[O-])c3)cc2)CC1` [N-[(4-{[(2R)-4-(dimethylamino)-1-(phenylsulfanyl)butan-2-yl]amino}-3-nitrobenzene)sulfonyl]-4-(4-{[2-(methylsulfanyl)phenyl]methyl}piperazin-1-yl)benzamide], for which the EC50 is 95 nM and 130 nM.

On to `COc1ccccc1CN1CCN(c2ccc(C(=O)NS(=O)(=O)c3ccc(N[C@H](CCN(C)C)CSc4ccccc4)c([N+](=O)[O-])c3)cc2)CC1` [N-[(4-{[(2R)-4-(dimethylamino)-1-(phenylsulfanyl)butan-2-yl]amino}-3-nitrobenzene)sulfonyl]-4-{4-[(2-methoxyphenyl)methyl]piperazin-1-yl}benzamide], for which the half-maximal effective concentration (EC50) was 390 nM and 950 nM.

Staying with this assay, now noted: pH 7.4.
As for `CN(C)CC[C@H](CSc1ccccc1)Nc1ccc(S(=O)(=O)NC(=O)c2ccc(N3CCN(C(=O)Nc4ccccc4)CC3)cc2)cc1[N+](=O)[O-]` [4-(4-{[(4-{[(2R)-4-(dimethylamino)-1-(phenylsulfanyl)butan-2-yl]amino}-3-nitrobenzene)sulfonyl]carbamoyl}phenyl)-N-phenylpiperazine-1-carboxamide], the EC50 is above 50000 nM.

In turn, `CC1OC2(CCN(c3ccc(C(=O)NS(=O)(=O)c4ccc(N[C@H](CCN(C)C)CSc5ccccc5)c([N+](=O)[O-])c4)cc3)CC2)N(Cc2ccccc2)C1=O` (stereo partly drawn) [4-{4-benzyl-2-methyl-3-oxo-1-oxa-4,8-diazaspiro[4.5]decan-8-yl}-N-[(4-{[(2R)-4-(dimethylamino)-1-(phenylsulfanyl)butan-2-yl]amino}-3-nitrobenzene)sulfonyl]benzamide] had an EC50 above 20000 nM.

On to `Cc1ccc(S(=O)(=O)N2CCN(c3ccc(C(=O)NS(=O)(=O)c4ccc(N[C@H](CCN(C)C)CSc5ccccc5)c([N+](=O)[O-])c4)cc3)CC2)cc1` [N-[(4-{[(2R)-4-(dimethylamino)-1-(phenylsulfanyl)butan-2-yl]amino}-3-nitrobenzene)sulfonyl]-4-{4-[(4-methylbenzene)sulfonyl]piperazin-1-yl}benzamide], for which the EC50 was above 20000 nM.

Take `CN(C)CC[C@H](CSc1ccccc1)Nc1ccc(S(=O)(=O)NC(=O)c2ccc(N3CCC(=Cc4ccc(F)cc4)CC3)cc2)cc1[N+](=O)[O-]` [N-[(4-{[(2R)-4-(dimethylamino)-1-(phenylsulfanyl)butan-2-yl]amino}-3-nitrobenzene)sulfonyl]-4-{4-[(4-fluorophenyl)methylidene]piperidin-1-yl}benzamide]: the EC50 was 380 nM.
